# Laboratory results: the supplement of paper PMC10307832
# Legend:
# Experiment in all cases: relative viability (nuclei count vs DMSO), 5 days (fraction); higher = more cells survive
# Avagacestat = compound: NC(=O)[C@@H](CCC(F)(F)F)N(Cc1ccc(-c2ncon2)cc1F)S(=O)(=O)c1ccc(Cl)cc1 [Avagacestat]
# Procedure, shortened: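 Lung cancer cell lines in 1536-well plates were exposed by pinning to five library-drug doses (not always all listed) √10 apart, following an overnight hold at 37 °C. MetaXpress counted Hoechst-stained nuclei from 4× images taken after 5 days without medium change. Viability is the median ratio of treated-well to vehicle-well nuclei across plates. Plates required control CV below 25% and at least one doubling.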
# Avagacestat + Tozasertib = compound: NC(=O)[C@@H](CCC(F)(F)F)N(Cc1ccc(-c2ncon2)cc1F)S(=O)(=O)c1ccc(Cl)cc1 [Avagacestat] + Cc1cc(Nc2cc(N3CCN(C)CC3)nc(Sc3ccc(NC(=O)C4CC4)cc3)n2)n[nH]1 [Tozasertib] (partner 0.1 µM)
# Procedure, shortened: (§1)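 One day after seeding in 1536-well plates, lung cancer cell lines were dosed by pin tool. Dosing was either single-drug or a fixed anchor-drug dose plus five library-drug doses (not always all listed) in √10 steps. After 5 days, nuclei were stained in one fix-and-stain step and counted on 4× images, and relative viability is the nuclei count of treated wells over that of vehicle wells, given as the median of duplicate plates.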
# Avagacestat + Foretinib = compound: NC(=O)[C@@H](CCC(F)(F)F)N(Cc1ccc(-c2ncon2)cc1F)S(=O)(=O)c1ccc(Cl)cc1 [Avagacestat] + COc1cc2c(Oc3ccc(NC(=O)C4(C(=O)Nc5ccc(F)cc5)CC4)cc3F)ccnc2cc1OCCCN1CCOCC1 [Foretinib] (partner 0.25 µM)
# Procedure, shortened: as §1
# Avagacestat + Vorinostat = compound: NC(=O)[C@@H](CCC(F)(F)F)N(Cc1ccc(-c2ncon2)cc1F)S(=O)(=O)c1ccc(Cl)cc1 [Avagacestat] + O=C(CCCCCCC(=O)Nc1ccccc1)NO [Vorinostat] (partner 1 µM)
# Procedure, shortened: as §1
# Avagacestat + AZD7762 = compound: NC(=O)[C@@H](CCC(F)(F)F)N(Cc1ccc(-c2ncon2)cc1F)S(=O)(=O)c1ccc(Cl)cc1 [Avagacestat] + NC(=O)Nc1cc(-c2cccc(F)c2)sc1C(=O)N[C@H]1CCCNC1 [AZD7762] (partner 0.2 µM)
# Procedure, shortened: as §1
# Avagacestat + Dasatinib = compound: NC(=O)[C@@H](CCC(F)(F)F)N(Cc1ccc(-c2ncon2)cc1F)S(=O)(=O)c1ccc(Cl)cc1 [Avagacestat] + Cc1nc(Nc2ncc(C(=O)Nc3c(C)cccc3Cl)s2)cc(N2CCN(CCO)CC2)n1 [Dasatinib] (partner 0.075 µM)
# Procedure, shortened: as §1
# Avagacestat + Trametinib = compound: NC(=O)[C@@H](CCC(F)(F)F)N(Cc1ccc(-c2ncon2)cc1F)S(=O)(=O)c1ccc(Cl)cc1 [Avagacestat] + CC(=O)Nc1cccc(-n2c(=O)n(C3CC3)c(=O)c3c(Nc4ccc(I)cc4F)n(C)c(=O)c(C)c32)c1 [Trametinib] (partner 0.02 µM)
# Procedure, shortened: as §1
# Avagacestat + Luminespib = compound: NC(=O)[C@@H](CCC(F)(F)F)N(Cc1ccc(-c2ncon2)cc1F)S(=O)(=O)c1ccc(Cl)cc1 [Avagacestat] + CCNC(=O)c1noc(-c2cc(C(C)C)c(O)cc2O)c1-c1ccc(CN2CCOCC2)cc1 [Luminespib] (partner 0.01 µM)
# Procedure, shortened: as §1
# Avagacestat + Pemetrexed = compound: NC(=O)[C@@H](CCC(F)(F)F)N(Cc1ccc(-c2ncon2)cc1F)S(=O)(=O)c1ccc(Cl)cc1 [Avagacestat] + Nc1nc2[nH]cc(CCc3ccc(C(=O)N[C@@H](CCC(=O)O)C(=O)O)cc3)c2c(=O)[nH]1 [Pemetrexed] (partner 0.2 µM)
# Procedure, shortened: as §1
# Avagacestat + Olaparib = compound: NC(=O)[C@@H](CCC(F)(F)F)N(Cc1ccc(-c2ncon2)cc1F)S(=O)(=O)c1ccc(Cl)cc1 [Avagacestat] + O=C(c1cc(Cc2n[nH]c(=O)c3ccccc23)ccc1F)N1CCN(C(=O)C2CC2)CC1 [Olaparib] (partner 8 µM)
# Procedure, shortened: as §1
# Avagacestat + OSI-027 = compound: NC(=O)[C@@H](CCC(F)(F)F)N(Cc1ccc(-c2ncon2)cc1F)S(=O)(=O)c1ccc(Cl)cc1 [Avagacestat] + COc1cccc2cc(-c3nc([C@H]4CC[C@H](C(=O)O)CC4)n4ncnc(N)c34)[nH]c12 [OSI-027] (partner 0.5 µM)
# Procedure, shortened: as §1
# Avagacestat + Phenformin = compound: NC(=O)[C@@H](CCC(F)(F)F)N(Cc1ccc(-c2ncon2)cc1F)S(=O)(=O)c1ccc(Cl)cc1 [Avagacestat] + N=C(N)NC(=N)NCCc1ccccc1 [Phenformin] (partner 250 µM)
# Procedure, shortened: as §1
# Avagacestat + Decitabine = compound: NC(=O)[C@@H](CCC(F)(F)F)N(Cc1ccc(-c2ncon2)cc1F)S(=O)(=O)c1ccc(Cl)cc1 [Avagacestat] + Nc1ncn([C@H]2C[C@H](O)[C@@H](CO)O2)c(=O)n1 [Decitabine] (partner 2 µM)
# Procedure, shortened: as §1
# [1] = compound: NC(=O)[C@@H](CCC(F)(F)F)N(Cc1ccc(-c2ncon2)cc1F)S(=O)(=O)c1ccc(Cl)cc1 [Avagacestat] + CC(=O)c1c(C)c2cnc(Nc3ccc(N4CCNCC4)cn3)nc2n(C2CCCC2)c1=O [Palbociclib] (partner 0.5 µM)
# Procedure, shortened: as §1
cell line,measurement,setting,value
SW 900,relative viability,Avagacestat; 0.08 µM,1.07
same,relative viability,Avagacestat; 0.253 µM,1.04
same,relative viability,Avagacestat; 0.8 µM,1.06
same,relative viability,Avagacestat; 2.53 µM,0.967
same,relative viability,Avagacestat; 8 µM,0.979
same,relative viability,Avagacestat + Tozasertib; first compound 0.08 µM,0.726
same,relative viability,Avagacestat + Tozasertib; first compound 0.253 µM,0.637
same,relative viability,Avagacestat + Tozasertib; first compound 0.8 µM,0.578
same,relative viability,Avagacestat + Tozasertib; first compound 2.53 µM,0.487
same,relative viability,Avagacestat + Tozasertib; first compound 8 µM,0.353
same,relative viability,Avagacestat + Foretinib; first compound 0.08 µM,1.38
same,relative viability,Avagacestat + Foretinib; first compound 0.253 µM,1.32
same,relative viability,Avagacestat + Foretinib; first compound 0.8 µM,0.967
same,relative viability,Avagacestat + Foretinib; first compound 2.53 µM,0.612
same,relative viability,Avagacestat + Foretinib; first compound 8 µM,1.2
same,relative viability,Avagacestat + Vorinostat; first compound 0.08 µM,0.502
same,relative viability,Avagacestat + Vorinostat; first compound 0.253 µM,0.828
same,relative viability,Avagacestat + Vorinostat; first compound 0.8 µM,0.554
same,relative viability,Avagacestat + Vorinostat; first compound 2.53 µM,0.535
same,relative viability,Avagacestat + Vorinostat; first compound 8 µM,0.641
same,relative viability,Avagacestat + AZD7762; first compound 0.08 µM,0.847
same,relative viability,Avagacestat + AZD7762; first compound 0.253 µM,0.807
same,relative viability,Avagacestat + AZD7762; first compound 0.8 µM,0.606
same,relative viability,Avagacestat + AZD7762; first compound 2.53 µM,0.571
same,relative viability,Avagacestat + AZD7762; first compound 8 µM,0.466
same,relative viability,Avagacestat + Dasatinib; first compound 0.08 µM,0.821
same,relative viability,Avagacestat + Dasatinib; first compound 0.253 µM,0.599
same,relative viability,Avagacestat + Dasatinib; first compound 0.8 µM,0.547
same,relative viability,Avagacestat + Dasatinib; first compound 2.53 µM,0.848
same,relative viability,Avagacestat + Dasatinib; first compound 8 µM,0.558
same,relative viability,Avagacestat + Trametinib; first compound 0.08 µM,1.08
same,relative viability,Avagacestat + Trametinib; first compound 0.253 µM,0.82
same,relative viability,Avagacestat + Trametinib; first compound 0.8 µM,0.872
same,relative viability,Avagacestat + Trametinib; first compound 2.53 µM,0.763
same,relative viability,Avagacestat + Trametinib; first compound 8 µM,0.713
same,relative viability,Avagacestat + Luminespib; first compound 0.08 µM,0.176
same,relative viability,Avagacestat + Luminespib; first compound 0.253 µM,0.168
same,relative viability,Avagacestat + Luminespib; first compound 0.8 µM,0.173
same,relative viability,Avagacestat + Luminespib; first compound 2.53 µM,0.153
same,relative viability,Avagacestat + Luminespib; first compound 8 µM,0.177
same,relative viability,Avagacestat + Pemetrexed; first compound 0.08 µM,0.485
same,relative viability,Avagacestat + Pemetrexed; first compound 0.253 µM,0.507
same,relative viability,Avagacestat + Pemetrexed; first compound 0.8 µM,0.474
same,relative viability,Avagacestat + Pemetrexed; first compound 2.53 µM,0.486
same,relative viability,Avagacestat + Pemetrexed; first compound 8 µM,0.482
same,relative viability,Avagacestat + Olaparib; first compound 0.08 µM,1.04
same,relative viability,Avagacestat + Olaparib; first compound 0.253 µM,0.96
same,relative viability,Avagacestat + Olaparib; first compound 0.8 µM,0.982
same,relative viability,Avagacestat + Olaparib; first compound 2.53 µM,0.634
same,relative viability,Avagacestat + Olaparib; first compound 8 µM,0.896
same,relative viability,Avagacestat + OSI-027; first compound 0.08 µM,0.756
same,relative viability,Avagacestat + OSI-027; first compound 0.253 µM,0.731
same,relative viability,Avagacestat + OSI-027; first compound 0.8 µM,0.581
same,relative viability,Avagacestat + OSI-027; first compound 2.53 µM,0.573
same,relative viability,Avagacestat + OSI-027; first compound 8 µM,0.653
same,relative viability,Avagacestat + Phenformin; first compound 0.08 µM,0.781
same,relative viability,Avagacestat + Phenformin; first compound 0.253 µM,0.641
same,relative viability,Avagacestat + Phenformin; first compound 0.8 µM,0.543
same,relative viability,Avagacestat + Phenformin; first compound 2.53 µM,0.571
same,relative viability,Avagacestat + Phenformin; first compound 8 µM,0.627
same,relative viability,Avagacestat + Decitabine; first compound 0.08 µM,0.376
same,relative viability,Avagacestat + Decitabine; first compound 0.253 µM,0.401
same,relative viability,Avagacestat + Decitabine; first compound 0.8 µM,0.422
same,relative viability,Avagacestat + Decitabine; first compound 2.53 µM,0.464
same,relative viability,Avagacestat + Decitabine; first compound 8 µM,0.41
same,relative viability,[1]; first compound 0.08 µM,0.627
same,relative viability,[1]; first compound 0.253 µM,0.618
same,relative viability,[1]; first compound 0.8 µM,0.645
same,relative viability,[1]; first compound 2.53 µM,0.453
same,relative viability,[1]; first compound 8 µM,0.505
NCI-H522,relative viability,Avagacestat; 0.08 µM,0.922
same,relative viability,Avagacestat; 0.253 µM,1.04
same,relative viability,Avagacestat; 0.8 µM,0.969
same,relative viability,Avagacestat; 2.53 µM,1.12
same,relative viability,Avagacestat; 8 µM,0.938
same,relative viability,Avagacestat + Tozasertib; first compound 0.08 µM,0.559
same,relative viability,Avagacestat + Tozasertib; first compound 0.253 µM,0.593
same,relative viability,Avagacestat + Tozasertib; first compound 0.8 µM,0.579
same,relative viability,Avagacestat + Tozasertib; first compound 2.53 µM,0.517
same,relative viability,Avagacestat + Tozasertib; first compound 8 µM,0.479
same,relative viability,Avagacestat + Vorinostat; first compound 0.08 µM,1.04
same,relative viability,Avagacestat + Vorinostat; first compound 0.253 µM,1.01
same,relative viability,Avagacestat + Vorinostat; first compound 0.8 µM,0.928
same,relative viability,Avagacestat + Vorinostat; first compound 2.53 µM,0.866
same,relative viability,Avagacestat + Vorinostat; first compound 8 µM,0.792
same,relative viability,Avagacestat + AZD7762; first compound 0.08 µM,0.768
same,relative viability,Avagacestat + AZD7762; first compound 0.253 µM,0.82
same,relative viability,Avagacestat + AZD7762; first compound 0.8 µM,0.807
same,relative viability,Avagacestat + AZD7762; first compound 2.53 µM,0.843
same,relative viability,Avagacestat + AZD7762; first compound 8 µM,0.985
same,relative viability,Avagacestat + Dasatinib; first compound 0.08 µM,0.942
same,relative viability,Avagacestat + Dasatinib; first compound 0.253 µM,0.886
same,relative viability,Avagacestat + Dasatinib; first compound 0.8 µM,0.861
same,relative viability,Avagacestat + Dasatinib; first compound 2.53 µM,0.927
same,relative viability,Avagacestat + Dasatinib; first compound 8 µM,1.07
same,relative viability,Avagacestat + Trametinib; first compound 0.08 µM,0.748
same,relative viability,Avagacestat + Trametinib; first compound 0.253 µM,0.74
same,relative viability,Avagacestat + Trametinib; first compound 0.8 µM,0.734
same,relative viability,Avagacestat + Trametinib; first compound 2.53 µM,0.72
same,relative viability,Avagacestat + Trametinib; first compound 8 µM,0.795
same,relative viability,Avagacestat + Luminespib; first compound 0.08 µM,1.08
same,relative viability,Avagacestat + Luminespib; first compound 0.253 µM,1.12
same,relative viability,Avagacestat + Luminespib; first compound 0.8 µM,1.03
same,relative viability,Avagacestat + Luminespib; first compound 2.53 µM,1.21
same,relative viability,Avagacestat + Luminespib; first compound 8 µM,1.15
same,relative viability,Avagacestat + Pemetrexed; first compound 0.08 µM,0.933
same,relative viability,Avagacestat + Pemetrexed; first compound 0.253 µM,1.27
same,relative viability,Avagacestat + Pemetrexed; first compound 0.8 µM,0.774
same,relative viability,Avagacestat + Pemetrexed; first compound 2.53 µM,1.04
same,relative viability,Avagacestat + Pemetrexed; first compound 8 µM,1.07
same,relative viability,Avagacestat + Olaparib; first compound 0.08 µM,0.566
same,relative viability,Avagacestat + Olaparib; first compound 0.253 µM,0.715
same,relative viability,Avagacestat + Olaparib; first compound 0.8 µM,0.656
same,relative viability,Avagacestat + Olaparib; first compound 2.53 µM,0.691
same,relative viability,Avagacestat + Olaparib; first compound 8 µM,0.621
same,relative viability,Avagacestat + OSI-027; first compound 0.08 µM,0.823
same,relative viability,Avagacestat + OSI-027; first compound 0.253 µM,0.728
same,relative viability,Avagacestat + OSI-027; first compound 0.8 µM,0.655
same,relative viability,Avagacestat + OSI-027; first compound 2.53 µM,0.689
same,relative viability,Avagacestat + OSI-027; first compound 8 µM,0.725
same,relative viability,Avagacestat + Phenformin; first compound 0.08 µM,0.71
same,relative viability,Avagacestat + Phenformin; first compound 0.253 µM,0.59
same,relative viability,Avagacestat + Phenformin; first compound 0.8 µM,0.669
same,relative viability,Avagacestat + Phenformin; first compound 2.53 µM,0.641
same,relative viability,Avagacestat + Phenformin; first compound 8 µM,0.649
same,relative viability,Avagacestat + Decitabine; first compound 0.08 µM,0.782
same,relative viability,Avagacestat + Decitabine; first compound 0.253 µM,0.674
same,relative viability,Avagacestat + Decitabine; first compound 0.8 µM,0.681
same,relative viability,Avagacestat + Decitabine; first compound 2.53 µM,0.606
same,relative viability,Avagacestat + Decitabine; first compound 8 µM,0.614
same,relative viability,[1]; first compound 0.08 µM,1.13
same,relative viability,[1]; first compound 0.253 µM,1.2
same,relative viability,[1]; first compound 0.8 µM,1.08
same,relative viability,[1]; first compound 2.53 µM,0.954
same,relative viability,[1]; first compound 8 µM,0.946
